Data from patent US11642339B2 (THERAVANCE BIOPHARMA R&D IP, LLC, priority 2017, dated 2023).

Legend:
[1] = tested on: subjects with diabetic or idiopathic gastroparesis; test: DIGEST I: weekly GRS total score; conditions: ITT
Text: Gastroparesis Rating Score is a patient reported outcome that measures 9 symptoms: (1) nausea, (2) bloating, (3) postprandial fullness, (4) early satiety, (5) vomiting, (6) abdominal pain, (7) epigastric burning, (8) gastric reflux with or without burning, and (9) bowel movements, using up to 27 questions assessing the severity of the symptom, the daily frequency of the symptom, the length of time on a daily basis of the symptom, and whether the symptom continues over a 24-hour period.
The total duration of study participation for each completed subject was approximately 19 weeks including: • Screening period: up to 5 weeks, including one week baseline period; • Treatment period: 12 weeks; and • Follow-up: 2 weeks.
During the treatment period, subjects were instructed to take 1 capsule of study drug once daily approximately 30 minutes prior to eating at approximately the same time each morning and to record the time of drug ingestion in the electronic diary. Subjects also completed the GCS1-24H and GRS on a daily basis using an electronic diary. […] Subjects returned to the study center for safety and efficacy assessments as detailed in the Schedule of Study Procedures.
A daily proprietary patient reported outcome (PRO) tool was used to assess GP symptoms, the Gastroparesis Rating Scale (GRS), developed according to the current FDA PRO guidance. The GRS covers the following cardinal symptom domains: (1) nausea, (2) vomiting, (3) postprandial fullness/early satiety, (4) bloating, (5) upper abdominal pain, (6) gastric reflux/burning, and (7) bowel movements. The GRS symptom domains may be also categorized or grouped into Factor 1 (fullness, early satiety, bloating, upper abdominal pain, and epigastric burning) and Factor 2 (nausea and vomiting).
The primary endpoint evaluation time point was Week 4 with sensitivity analyses conducted at Weeks 8 and 12.
LS Mean Differences in each subgroup are calculated based on repeated measures mixed effect model with change from baseline in weekly GRS total score as dependent variable, treatment, gastroparesis type (diabetic vs. idiopathic), GE test time (historical vs. prospective), baseline GRS total score, time, subgroup variable, interaction effect of treatment by time, baseline GRS total score by time, treatment by subgroup variable, time by subgroup variable and treatment by time by subgroup variable as fixed effect, a random effect of subject within site, using an unstructured covariance structure.

[2] = tested on: subjects with diabetic or idiopathic gastroparesis; test: DIGEST I: responder analysis of GRS Summary Scores;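 also: weekly responder means a clinically relevant symptom change versus baseline, and weeks with missing data (dropouts) count as non-response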
Text: A weekly responder was defined as a subject who experienced a clinically relevant change in symptoms from baseline.
Given these observations, a responder is any subject being a weekly responder for at least 6 of 12 weeks and at least 3 of the last 4 weeks of treatment. Subjects with missing data in the week (drop out) were defined as a non-responder for that week.

[3] = 5 mg/day, responders for at least 6 of 12 weeks, ITT
[4] = 15 mg/day, at least 6 of 12 weeks and at least 3 weeks of Weeks 9-12, ITT
[5] = 15 mg/day, diabetic gastroparesis population
[6] = 15 mg/day, idiopathic gastroparesis population
[7] = 15 mg/day, responders for at least 6 of 12 weeks, ITT
[8] = 30 mg/day, at least 6 of 12 weeks and at least 3 weeks of Weeks 9-12, ITT
[9] = 30 mg/day, diabetic gastroparesis population
[10] = 30 mg/day, idiopathic gastroparesis population
[11] = 30 mg/day, responders for at least 6 of 12 weeks, ITT

Substance: 1-isopropyl-2-oxo-1,2-dihydroquinoline-3-carboxylic acid {(1S,3R,5R)-8-[(R)-2-hydroxy-3-(methanesulfonyl-methyl-amino)propyl]-8-azabicyclo[3.2.1]oct-3-yl}amide [Velusetrag]
- LS Mean change from baseline, weekly GRS total score ([1]; 15 mg/day, Week 12): −1.3 (0.14) points
- LS Mean Difference vs placebo, weekly GRS total score ([1]; 30 mg/day, Week 4): 0.0 (0.17) points
- LS Mean change from baseline, weekly GRS total score ([1]; 30 mg/day, Week 4): −0.8 (0.12) points
- LS Mean Difference vs placebo, weekly GRS total score ([1]; 30 mg/day, Week 8): −0.1 (0.19) points
- LS Mean change from baseline, weekly GRS total score ([1]; 30 mg/day, Week 8): −1.1 (0.13) points
- LS Mean Difference vs placebo, weekly GRS total score ([1]; 30 mg/day, Week 12): −0.1 (0.19) points
- LS Mean change from baseline, weekly GRS total score ([1]; 30 mg/day, Week 12): −1.3 (0.13) points
- LS Proportion of positive responders; Summary Score 1 [2, 3]: 0.54
- LS Proportion of positive responders; Summary Score 2 [2, 3]: 0.57
- Responders, %; Summary Score 1 [2, 3]: (55.9) %
- Responders, %; Summary Score 2 [2, 3]: (57.6) %
- Responders, n; Summary Score 1 [2, 3]: 33
- Responders, n; Summary Score 2 [2, 3]: 34
- LS Proportion of positive responders; Summary Score 1 [2, 4]: 0.45
- LS Proportion of positive responders; Summary Score 2 [2, 4]: 0.43
- Responders, %; Summary Score 1 [2, 4]: (45.3) %
- Responders, %; Summary Score 2 [2, 4]: (43.4) %
- Responders, n; Summary Score 1 [2, 4]: 24
- Responders, n; Summary Score 2 [2, 4]: 23
- LS Proportion of positive responders; Summary Score 1 [2, 5]: 0.44
- LS Proportion of positive responders; Summary Score 2 [2, 5]: 0.31
- Responders, %; Summary Score 1 [2, 5]: (44.8) %
- Responders, %; Summary Score 2 [2, 5]: (34.5) %
- Responders, n; Summary Score 1 [2, 5]: 13
- Responders, n; Summary Score 2 [2, 5]: 10
- LS Proportion of positive responders; Summary Score 1 [2, 6]: 0.48
- LS Proportion of positive responders; Summary Score 2 [2, 6]: 0.58
- Responders, %; Summary Score 1 [2, 6]: (45.8) %
- Responders, %; Summary Score 2 [2, 6]: (54.2) %
- Responders, n; Summary Score 1 [2, 6]: 11
- Responders, n; Summary Score 2 [2, 6]: 13
- LS Proportion of positive responders; Summary Score 1 [2, 7]: 0.49
- LS Proportion of positive responders; Summary Score 2 [2, 7]: 0.51
- Responders, %; Summary Score 1 [2, 7]: (49.1) %
- Responders, %; Summary Score 2 [2, 7]: (50.9) %
- Responders, n; Summary Score 1 [2, 7]: 26
- Responders, n; Summary Score 2 [2, 7]: 27
- LS Proportion of positive responders; Summary Score 1 [2, 8]: 0.44
- LS Proportion of positive responders; Summary Score 2 [2, 8]: 0.45
- Responders, %; Summary Score 1 [2, 8]: (47.4) %
- Responders, %; Summary Score 2 [2, 8]: (49.1) %
- Responders, n; Summary Score 1 [2, 8]: 27
- Responders, n; Summary Score 2 [2, 8]: 28
- LS Proportion of positive responders; Summary Score 1 [2, 9]: 0.48
- LS Proportion of positive responders; Summary Score 2 [2, 9]: 0.45
- Responders, %; Summary Score 1 [2, 9]: (50.0) %
- Responders, %; Summary Score 2 [2, 9]: (50.0) %
- Responders, n; Summary Score 1 [2, 9]: 13
- Responders, n; Summary Score 2 [2, 9]: 13
- LS Proportion of positive responders; Summary Score 1 [2, 10]: 0.41
- LS Proportion of positive responders; Summary Score 2 [2, 10]: 0.45
- Responders, %; Summary Score 1 [2, 10]: (45.2) %
- Responders, %; Summary Score 2 [2, 10]: (48.4) %
- Responders, n; Summary Score 1 [2, 10]: 14
- Responders, n; Summary Score 2 [2, 10]: 15
- LS Proportion of positive responders; Summary Score 1 [2, 11]: 0.44
- LS Proportion of positive responders; Summary Score 2 [2, 11]: 0.47
- Responders, %; Summary Score 1 [2, 11]: (47.4) %
- Responders, %; Summary Score 2 [2, 11]: (50.9) %
- Responders, n; Summary Score 1 [2, 11]: 27
- Responders, n; Summary Score 2 [2, 11]: 29
